Experimental data published in US7727526B2, “Use of PTHrP antagonists for treating renal cell carcinoma” (Universite Louis Pasteur, priority 2002, dated 2010).
Entries after “also recorded” stand apart in the source; their conditions may differ.

Experiments:
tumour cells UOK-128 = test: Cell proliferation of UOK-128 tumour cells (cell count and BrdU incorporation); format: cell-based, human; settings: different concentrations, medium without serum, 48 hrs
Procedure: (§1) The cells were cultured in plates with 24 wells (1 ml per well) and in plates with 96 well (100 μl per well) at the rate of 10,000 to 30,000 C/ml. The cells were cultivated in the medium with serum described above. For the assays with the RPTH1 antagonists, after 24 hrs of culture, the medium was changed for a medium without serum containing 0.1% BSA (bovine serum albumin, Sigma) and the antibiotics. This manipulation facilitates cultivation of the cells in the absence of the factors present in the serum and facilitates assessment of the influence of the antagonist on cell proliferation. […]
(§2) The cell proliferation was determined by two means, on the one hand by counting the cells (manual counting) using plates with 24 wells and on the other hand by measuring the incorporation of 5-bromo-2′-deoxyuridine (BrdU) using plates with 96 wells.
(§3) The culture medium is removed by suction and an adequate volume of trypsin-EDTA (Sigma) is added. […] The cells are then recovered and manually counted with a counting cell placed under an optic microscope. […]
(§4) For the experiments in vitro, the results of the manual counts are expressed as a percentage of the number of cells present in the control wells. […] The incorporations in response to the treatments are thus expressed as a percentage of the incorporations of positive controls taken as 100% incorporation. […]

tumour cells UOK-126 = test: Cell proliferation of UOK-126 tumour cells (cell count and BrdU incorporation); format: cell-based, human; settings: different concentrations, medium without serum, 48 hrs
Procedure: as §1, §2, §3, §4

[1] = system: 786-0 cells implanted subcutaneously; test: First experimental protocol: subcutaneous 786-0 tumours in nude mouse, daily RPTH1 antagonist; format: in vivo
Procedure: (§5) The 786-0 cells were cultivated in the RPMI 1640 medium supplemented with serum until confluence. The cells were recuperated by trypsination and re-suspended in RPMI 1640 medium without serum and without antibiotics at the rate of 5 million cells/200 μl the same day of implantation of the mice. The cells were implanted subcutaneously in the backs of nude mice at the rate of 200 μl per implantation. A week to 10 days after the implantation of the cells, the tumours developed forming nodules of approximately 60 to 300 mm^3. From this moment, the treatments were initiated according to three protocols: a pilot protocol which was performed in order to determine the effectiveness of the treatments in vivo and carried out on two mice per experimental condition receiving 4 implantations (namely 8 tumours/experimental condition) and two experimental protocols elaborated following the results obtained with the pilot protocol on 10 or 5 mice per experimental condition and receiving 1 or 2 implantations (namely 10 tumours/experimental condition).
First Experimental Protocol. […] Consequently, in this protocol, on the one hand the numbers in each group were increased (10 mice with a tumour/experimental group) and on the other hand daily injections either of water (control) or of the RPTH1 antagonist (dissolved in sterile water) were performed. As for the pilot protocol, all the injections were performed intraperitoneally (200 μl water or 20 μg/mouse of antagonist in 200 μl) and intratumourally (100 μl of water or 10 μg/mouse of antagonist in 100 μl). For this series, the size of the tumours was measured in a blind way twice a week under light gas anaesthesia with isoflurane. At the end of the experimental period, the mice were anaesthetised with pentobarbital. Approximately 0.5 ml of blood was then recovered rapidly through intracardiac puncture of each mouse for the dosage of electrolytes and circulating PTHrP. The tumours were dissected and fixed in formol for subsequent histo-pathological studies (necrotic aspect) and immunohistochemical studies (factor VIII, PTHrP, RPTH1, mitotic index and apoptotic index).
Proliferative and Apoptotic Index. The proliferation index was determined by coloration of tumour section with a monoclonal mouse antibody anti-Ki67 human, Dako, Trappes, France) using standard methods. The detection kit of apoptotic cells based upon the TUNEL method (Roche Diagnostics) was used to measure the apoptotic index on the sections. The total cells and those coloured in 15 fields (0.25 mm^2 each) of the highest cell coloration were counted in order to determine the two indexes which are expressed as a percentage of coloured cells in relation to total cells.
Factor VIII and Microvascular Density. The tumour sections were coloured for the endothelial cells with a rabbit polyclonal antibody anti-human […], (Dako) using standard methods. The density of the micro-vessels was determined by counting the intersection points between vessels and the total number of vessels of 4 to 5 fields (0.25 mm^2 each) showing the highest vascular density.
(§6) For the experiments in vivo in the nude mouse, the results of tumour growths were expressed as a percentage of the size at day 0 of the treatments. The results are expressed as a mean +/−ESM. […]

[2] = system: 786-0 cells implanted subcutaneously; test: Pilot protocol: subcutaneous 786-0 tumours in nude mouse, twice weekly injections; format: in vivo; settings: for growth of implanted tumours: twice weekly i.p. and intratumoural injections, 25 days (antibody stopped after 18 days), versus control
Procedure: as §5
Pilot Protocol. In this protocol, 6 mice were separated into three groups: a first group receiving injections of sterile water (control), a second group receiving injections of anti-PTHrP (1-34) antibody (Bachem, dissolved in sterile water) and a third group receiving injections of antagonist (Asn10, Leu11, D-Trp12)PTHrP(7-34) amide (Bachem, dissolved in sterile water). All injections were performed 2 times per week intra-peritoneally (50 μg/mouse of antibody or 20 μg/mouse of antagonist in 200 μl) and in intra-tumoural terms (25 μg/mouse of antibody or 10 μg/mouse of antagonist in […]). […] The volume of the tumours (length×width×depth×0.5236) was manually measured in a blind manner with callipers on days 0, 4, 7, 12, 14, 18, 23 and 25 after the first injection of the compounds under light gas anaesthesia with isoflurane. […]
as §6

tumour cells 786-0 [3] = test: Cell proliferation of 786-0 tumour cells (cell count and BrdU incorporation); format: cell-based, human; settings: antagonist at different concentrations, medium without serum, 48 hrs
Procedure: as §1, §2, §3, §4

tumour cells 786-0 [4] = test: Analysis of cell death/apoptosis (detachment, OA/EB staining, DNA laddering); format: cell-based, human; settings: 48 hrs
Procedure: The cells were treated under control conditions or with either an anti-PTHrP N-terminal antibody at 1.5 μg/ml or a RPTH1 antagonist at 1 μM for 48 hrs. The orange acridine (OA) and the ethidium bromide (EB) were dissolved in a PBS buffer and added at 2 μg/ml in the culture medium. The cells were observed and photographed under fluorescence microscopy, either for the FITC (OA) or for the TRITC (EB). The fragmentation of the internucleosomal DNA was detected by a “DNA laddering” test. The cells were re-suspended in 300 μl of lysis buffer (25 mM EDTA, 1% SDS, 1 mg/ml proteinase K, pH 8) and incubated overnight at 50° C. DNA was extracted by phenol/chloroform, precipitated with ethanol and analysed by electrophoresis on agarose gel.

[5] = daily antagonist, treated versus control group

For “(Asn10, Leu11, D-Trp12)PTHrP(7-34) amide (human, rat) [RPTH1 antagonist]”, the “effect of antagonist on cell proliferation” value (tumour cells UOK-128) was “strongly inhibit”, the “effect of antagonist on cell proliferation” value (tumour cells UOK-126) was “inhibit very strongly” and the “apoptotic index (TUNEL) of tumours” value [1, 5] was “increased twofold”. For the same substance, the “histopathological analysis of tumours” value [1, 5] was “No polymorphic difference”, the “number of intersection points of the vessels and total number of vessels per surface area” value [1, 5] was “significantly increased” and the “proliferation index (Ki67) of tumours” value [1, 5] was “not different”. For the same substance, the “growth of implanted tumours” value ([1]; daily i.p. 20 μg/mouse and intratumoural 10 μg/mouse, 17 days, versus control) was “totally inhibited; also recorded: completely blocks the tumour growth”, the “growth of implanted tumours” value [2] was “blocks the growth” and the “growth of implanted tumours” value ([2]; listed as antagonist) was “considerably slowed-down growth; also recorded: greatly slow down tumour growth”. For the same substance, the “first day of significant tumour growth in comparison to day 0” value ([2]; twice weekly treatment, control significant from day 7) was 12 days, the “inhibition of cell proliferation” value (tumour cells 786-0 [3]) was 70% and the “number of cells marked by EB (cell death)” value (tumour cells 786-0 [4]; 1 μM, compared with non-treated cells) was “clearly increases”. The “cell adherence to the culture support” value (tumour cells 786-0 [4]; 10^−6 M, RPMI 1640 without serum) was “detaching the cells from the culture support”.
